Data: the supplement of paper PMC10627819

Tests used:
[1] = system: S. pneumoniae D39V; test: Bliss interaction score (quartile over a dose matrix) (fitness difference); higher = more antagonism (negative = synergy)
Procedure, shortened: (§1)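 Fitness was defined as normalised growth: OD595 at the start of stationary phase divided by the plate's robust no-drug mean and capped at 1. Single-drug fitness was inferred from combination measurements. The Bliss score is observed fitness minus the product of the single-drug values, summarised by quartiles across technical, biological and donor/recipient replicates.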

[2] = system: S. aureus DSM 20231; test: as above
Procedure, shortened: as §1

[3] = system: B. subtilis 168; test: as above
Procedure, shortened: as §1

[4] = system: S. aureus Newman; test: as above
Procedure, shortened: as §1

[5] = system: S. pneumoniae D39V; test: fitness (endpoint OD595 vs no drug) (fraction); higher = more growth
Procedure, shortened: (§2)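 Bacterial fitness was scored as optical density at the stationary-phase transition relative to the robust mean of no-drug control wells. Scores are capped at 1. The growth data were OD595 readings every 30 min for 14 h at 37 °C, background-subtracted against the first reading, from 384-well plates inoculated at OD595 0.01 in TSB, LB Lennox or CY.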

[6] = system: S. aureus DSM 20231; test: as above
Procedure, shortened: as §2

[7] = system: B. subtilis 168; test: as above
Procedure, shortened: as §2

[8] = system: S. aureus Newman; test: as above; conditions: first compound 0.0312 µg/mL; partner 85.5 µg/mL
Procedure, shortened: as §2
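For Bliss interaction score (quartile over a dose matrix) in this document: first quartile when negative (synergy) and third quartile when positive (antagonism).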
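For fitness (endpoint OD595 vs no drug) in this document: OD595 on entry to stationary phase over no-drug wells; at most 1.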

CCC[C@@H]1C[C@@H](C(=O)N[C@@H]([C@H]2O[C@H](SC)[C@H](O)[C@@H](O)[C@H]2O)[C@H](C)Cl)N(C)C1 [Clindamycin] + CCN(CC)CCOC(=O)c1ccc(N)cc1 [Procaine]
Conditions | Bliss interaction score | fitness
[1] | -0.11 | –
[2] | -0.0363 | –
[3] | -0.067 | –
[4] | 0.0552 | –
[8] | – | 0.706

fitness
Conditions | partner 85.5 µg/mL | partner 171 µg/mL | partner 342 µg/mL
[5], first compound 0.0125 µg/mL | 0.772 | 0.723 | 0.746
[5], first compound 0.025 µg/mL | 0.517 | 0.472 | 0.466
[5], first compound 0.05 µg/mL | 0.205 | 0.186 | 0.19
[6], first compound 0.0625 µg/mL | 0.196 | – | –
[6], first compound 0.125 µg/mL | 0.0583 | 0.0591 | 0.0589
[7], first compound 0.0625 µg/mL | 0.504 | 0.483 | 0.506
[7], first compound 0.125 µg/mL | 0.363 | 0.362 | 0.367
[7], first compound 0.25 µg/mL | 0.344 | 0.335 | 0.339

fitness, one replicate
Conditions | first compound 0.0039 µg/mL | first compound 0.0078 µg/mL | first compound 0.015 µg/mL | first compound 0.0156 µg/mL | first compound 0.03 µg/mL | first compound 0.06 µg/mL
[5], partner 85.5 µg/mL | – | – | 0.916 | – | 0.713 | 0.349
[5], partner 171 µg/mL | – | – | 0.956 | – | 0.766 | 0.513
[5], partner 342 µg/mL | – | – | 0.806 | – | 0.716 | 0.373
[7], partner 85.5 µg/mL | 0.941 | 0.866 | – | 0.798 | – | –
[7], partner 171 µg/mL | 0.931 | 0.838 | – | 0.814 | – | –
[7], partner 342 µg/mL | 0.931 | 0.788 | – | 0.856 | – | –
